Data as given in patent US20240409534A1, “CRYSTAL FORM OF METHYLPYRAZOLE-SUBSTITUTED PYRIDOIMIDAZOLE COMPOUND AND PREPARATION METHOD THEREFOR” (priority 2021, published 2024).

How the values were obtained:
Format in all cases: cell-based
[1] = system: gastric cancer cells SNU-16 with high expression of FGFR2; test: Cell proliferation inhibition, CellTiter-Glo, SNU-16; conditions: Homo sapiens, 72 h, SNU-16, cultured for 3 days
Description: (§1) The compounds of the present disclosure can target and inhibit FGFR and VEGFR pathways, and inhibit tumor cell growth by inhibiting VEGF/VEGFR and FGF/FGFR signaling pathways. In this experiment, human non-small cell lung cancer cells NCI-H1581 with high expression of FGFR1, gastric cancer cells SNU-16 with high expression of FGFR2, and human bladder cancer cells RT112/84 with high expression of FGFR3 were selected. In this experiment, the inhibitory effect of compounds on cell proliferation was investigated by detecting the effect of the compounds of the present disclosure on the cell viability in vitro in the tumor cell lines NCI-H1581, SNU-16 and RT-112/84.
(§2) Regular passage, and cells in logarithmic growth phase were taken for plating.
(§3) • (1) Cells were stained with trypan blue and viable cells were counted. • (2) The cell concentration was adjusted to an appropriate concentration.
(§4) • (3) 90 μL of cell suspension per well was added to a culture plate, and cell-free culture solution was added to the blank control well. • (4) The plate was cultured overnight in a 37° C., 5% CO2 incubator with 100% relative humidity.
(§5) • (1) Preparation of 10× compound working solution: 78 μL of cell culture medium was added to a V-bottom 96-well plate, and 2 μL of compound was pipetted from a 400× compound storage plate and added to the cell culture medium of the 96-well plate. […]

[2] = system: bladder cancer cells RT112/84 with high expression of FGFR3; test: Cell proliferation inhibition, CellTiter-Glo, RT-112/84; conditions: Homo sapiens, RT112/84, 72 h, RT-112/84, cultured for 3 days
Description: as §1, §2, §3, §4, §5

[3] = system: Ba/F3-TEL-FLT1 (VEGFR1); test: In vitro proliferation of BaF3 cell line, Ba/F3-TEL-FLT1
Method: The mother solution was prepared into a total of 9 concentration gradients (10.0000 mM, 2.5000 mM, 0.6250 mM, 0.1563 mM, 0.0391 mM, 0.0098 mM, 0.0024 mM, 0.0006 mM and 0.0002 mM) in a 4-fold dilution and stored in a 96-well plate (Beaver, Suzhou), while the same volume of DMSO solvent was used as a negative control. • 1. Cell suspension in logarithmic growth phase was taken and inoculated in a white 96-well cell culture plate (Corning 3917, NY, USA) with a volume of 95 μL per well (2000 cells/well). • 2. Diluted medium-compound mixture was added in a volume of 5 μL per well, respectively, and the final concentration of DMSO in Ba/F3-TEL-FLT1 (VEGFR1), Ba/F3-TEL-FLT4 (VEGFR3) and Ba/F3-TEL-VEGFR2 cells was 0.1%.
• 3. The plate was incubated in a 37° C., 5% CO2 incubator for 72 h. • 4. The proliferation inhibitory activity and data analysis of the compound by CellTiter-Glo method were the same as in Experimental embodiment 1.

Compound CS(=O)(=O)O.Cn1cc(-c2ccn3c(-c4cc(NS(C)(=O)=O)nc(-c5ccc(F)cc5F)c4)cnc3c2)cn1 has an IC50 [1] of 0.0445 µM, an IC50 [2] of 0.167 µM and a Maximum inhibition ([3]; 72 h) of 99.34%. For the same compound, the Minimum inhibition ([3]; 72 h) was −12.05% and the IC50 ([3]; Mus musculus, BaF3, 72 h, read-out: Relative IC50) was 0.046 µM.
